# Test results taken from US20140329780A1, “INHIBITOR OF COLONISATION OF MUCOSA” (HELMHOLTZ-ZENTRUM FUER INFEKTIONSFORSCHUNG GMBH, priority 2011, published 2014).
# Entries after “also recorded” stand apart in the source; their conditions may differ. Read-outs that look alike come from different tables or passages of the source.
# Tests used:
# S. aureus N315 [1] = assay: Adhesion test: inhibition of adherence of S. aureus N315 on A549 cells; assay type: cell-based, Staphylococcus aureus; conditions: for Reduction of adhesion [%]: S. aureus on A549 cells
# Procedure: S. aureus (N315) was precultivated on blood agar plates at 37° C. overnight. A colony was picked from the plate with a sterile loop and transferred into 5 ml of BHI medium. The suspension was incubated aerobically at 37° C. for 18 h. After this time the bacterial suspension was centrifugated and the clear medium was decanted off. The pellet was resuspended in PBS and centrifugated again twice. Finally the pellet was resuspended in infection medium at an OD of 1.0 at 600 nm.
# Infection medium: Gibco RPMI 1640medium, pH 7.4 (Invitrogen, Carlsbad, USA), containing 1% FBS and 20 mM Hepes.
# All media that were used were prewarmed to 37° C. The cell line A-549 was utilized. A-549 cells from a stock that was stored at −196° C. were quickly thawed and suspended in 10 ml of cell culture medium (DMEM (Lonza, Basel, Schweiz) containing 10% FBS (Invitrogen, Carlsbad, USA)). They were cultivated at 37° C. with 10% CO2 in cell culture bottles with a surface of 25 cm^2 under moisture saturation. The next day, the medium was removed and fresh medium was added. The cells were harvested at a confluency state of 80-90% by scrapping them off the bottom of the bottles and pipetting the suspension up and down several times. An aliquot was transferred into a fresh cell culture bottle with fresh medium. After another round of growth to 80-90% confluency the medium was removed and the cell layer was washed with 10 ml of sterile EBSS (Invitrogen). After removing the liquid, 1 ml of a 1% solution of trypsin was evenly distributed over the cell layer. After an incubation for 5 min at 37° C. and a visible detachment of the cell layer, 10 ml of fresh cell culture medium were added, the cells were resuspended and counted in a Neubauer cell counting chamber. A cell density of 100,000 /ml was adjusted and 100 μl of the cell suspension was distributed into the wells of a 96-well microtiter plate. The plate was incubated at 37° C. with 10% CO2 and moisture saturation until the cells had formed an adherent monolayer with 95-100% confluency (4-5 days). The medium was removed by pipetting and 75 μl of fresh infection medium were added to each well, followed by 25 μl of a bacterial suspension (OD600 1.0), together with different concentrations of the test compound. After an incubation time of 60 min at room temperature the medium and non-adherent bacteria were removed with a pipette and the wells were washed three times with PBS.
# For fixing the cells a solution of 4% paraformaldehyde in PBS was added and incubated for 20 min at room temperature. After removing the solution and washing the cells with PBS twice, a primary antibody against S. aureus lipoteichoic acid (from rabbit, Acris Antibodies GmbH, Herford) at 1:5000 dilution in 1% BSA-PBS was added (50 μl/Well) and incubated for 45 min at room temperature. During the last 10 min of this incubation an additional 50 μl/well of a solution of DAPI ((4′,6 Diamidino-2-phenylindol)dihydrochloride) in PBS (final concentration 1 μg/ml) was added. After a washing step an incubation with the HRP-conjugated secondary antibody (goat anti rabbit, Dianova) in 1% BSA-PBS for 45 min at room temperature was carried out. For detection of chemiluminescence the BM chemiluminescence ELISA substrate (POD—peroxidase-based secondary detection systems, Roche) was used. Chemiluminescence was determined immediately after addition of the substrate with a chemiluminescence microtiter plate reader.
# The detection and quantification of the adherent bacteria can also be carried out with a fluorescence-coupled secondary antibody, for which Alexa Fluor 488 goat anti rabbit at 1:1000 dilution was used. The determination of fluorescence was done after washing with PBS and adding 100 μl PBS per well with a fluorescence microtiter plate reader at 485/530 nm.
# Another and very favourable way to quantify the adherent bacteria is the utilization of an automatic microscope.
# The procedure is described for the ImageXpress Micro (IXM, Molecular Devices) […]
# S. aureus N315 [2] = assay: Inhibition of adherence of S. aureus N315 on human primary nasal epithelial cells; assay type: cell-based, Staphylococcus aureus; conditions: 1 μg/ml ATA
# Procedure: The experiments with the human nasal primary cells (HNEPC, Provitro GmbH, Berlin) were used as described for the A-549 cells and used for up to four passages (corresponding to approx. four weeks). For the HNEPC, Airway epithelial cell growth medium (Provitro GmbH, Berlin) was used.
# Following the general procedure as described above, the properties of ATA on inhibiting adhesion of S. aureus N315 on human primary epithelial cells was investigated. ATA was added at different concentrations to the culture and adherence was determined as described before. Already a concentration of 1 μg/ml ATA is sufficient to reduce the adherence of S. aureus to about 45%.
# host cells = assay: Effects on host cells; assay type: cell-based
# S. aureus = assay: Influence of ATA on S. aureus already adhering to A549 cells; assay type: cell-based, Staphylococcus aureus
# Procedure: Black bars represent 0.95 μg/ml ATA and white bars represent 2.2 μg/ml. A549 cells were incubated with S. aureus for 1 hour in advance and then ATA was added. Shown are the results for adherence after incubation with ATA for the time period indicated in the graph.
# All media that were used were prewarmed to 37° C. The cell line A-549 was utilized. A-549 cells from a stock that was stored at −196° C. were quickly thawed and suspended in 10 ml of cell culture medium (DMEM (Lonza, Basel, Schweiz) containing 10% FBS (Invitrogen, Carlsbad, USA)). They were cultivated at 37° C. with 10% CO2 in cell culture bottles with a surface of 25 cm^2 under moisture saturation. […] After an incubation for 5 min at 37° C. and a visible detachment of the cell layer, 10 ml of fresh cell culture medium were added, the cells were resuspended and counted in a Neubauer cell counting chamber. […]
# For fixing the cells a solution of 4% paraformaldehyde in PBS was added and incubated for 20 min at room temperature. […] Chemiluminescence was determined immediately after addition of the substrate with a chemiluminescence microtiter plate reader.
# Next, the influence of ATA at two different concentrations corresponding to the IC50 and IC90 values determined in Example 2, on adhering S. aureus cells has been determined. […] The adhesion has been calculated on the basis of 100% adhesion in the absence of ATA.
# MRSA strain N315 = assay: Anti-bacterial activity / growth curves of MRSA strain N315; assay type: cell-based, Staphylococcus aureus
# Text: That is, it has been recognized that ATA is able to inhibit adherence of bacteria, like S. aureus, including MRSA strains while not showing an anti-bacterial activity.
# [3] = tested on: different S. aureus isolates (50128509, BH30(04), 50307270, BH30(04) spa, 50046981); assay: Inhibition of adherence of different S. aureus isolates; assay type: cell-based, Staphylococcus aureus; conditions: MRSA, rifampicin-resistant, tetracycline resistant and methicillin sensitive isolates
# Text: The inhibitory properties of ATA on different S. aureus isolates have been determined using the following strains: 50128509 (MRSA; source: HZI Braunschweig), BH30(04) (MRSA; biofilm positive; SCCmec type II; MLST type 8; CC8; kindly provided by Prof. Jim O'Gara), 50307270 (rifampicin-resistant; source HZI Braunschweig), BH30(04) spa (tetracycline resistant; kindly provided by Prof. Jim O'Gara), 50046981 (methicllin sensitive; source: HZI Braunschweig).
# Adherence has been determined as described above.
# [4] = adhesion of S. aureus N315 on A549 cells
# [5] = Staphylococcus aureus, N315, A549
Compound,Reduction of adhesion [%] (S. aureus N315 [1]; 100 μM),IC10 (S. aureus N315 [1]; [4]),"IC50 (S. aureus N315 [1]; adhesion of S. aureus N315 on A549 cells, read-out: IC50)","IC90 (S. aureus N315 [1]; adhesion of S. aureus N315 on A549 cells, read-out: IC90)",Reduction of adhesion [%] (S. aureus N315 [1]; ≦50 μM),adherence of S. aureus (S. aureus N315 [2]),IC50 (S. aureus N315 [1]; [5]),IC90 (S. aureus N315 [1]; [5]),effects on host cells (host cells),"percentage of adherence of S. aureus compared to the control with no ATA (S. aureus; 2.2 μg/ml ATA added after 1 hour pre-incubation of A549 cells with S. aureus, after 3 hours)",eradication of S. aureus after adherence to cells (S. aureus; ATA at IC50 and IC90 concentrations added after 1 hour adherence to A549 cells),"anti-bacterial effect (growth curves of MRSA strain N315) (MRSA strain N315; 40 ug/ml, FIG. 6)","influence on growth of the MRSA strain (MRSA strain N315; 48 μg/ml, FIG. 6)",anti-bacterial activity (MRSA strain N315; concentration up to 100 μg/ml),inhibitory activity on adherence of different S. aureus strains [3]
Cc1cc(=O)c2c(O)c3c(O)cc(O)c4c5c(O)cc(O)c6c(O)c7c(=O)cc(CO)c8c1c2c(c34)c(c65)c78 [pseudohypericine],>90%,20 µM,51 µM,80 µM,50%,,,,,,,,,,
"O=C(O)C1=CC(=C(c2ccc(O)c(C(=O)O)c2)c2ccc(O)c(C(=O)O)c2)C=CC1=O [ATA, aurintricarboxylic acid]",>90%,~0.45 µg/mL,,,>90%,about 45%,0.95 µg/mL,~2.2 µg/mL,no remarkable effects have been observed on host cells,below 40%,potent in eradicating S. aureus after adherence to cells,does not have an anti-bacterial effect,does not significantly influence growth,no anti-bacterial activity is present; also recorded: does not show anti-bacterial activity,effective on different types of S. aureus strains
